The source of these data is patent publication US11710542B2, “Methods of protein docking and rational drug design” (priority 2016, dated 2023).

The subject of one experiment is E. coli B strain. Kind of experiment: MIC (MIC90) by broth microdilution, E. coli B strain expressing TEM β-lactamase variants. To be noted: for MIC: E. coli B strain, no plasmid (no TEM β-lactamase), MIC90. The experiment is classed as cell-based. On the procedure: (§1) Plasmids were then transformed into BL21(DE3) cells (Intact Genomics) and DH5a cells (Life Technologies) to create strains in which β-lactamases are expressed using a native promoter.
(§2) Antibiotic resistance of the strains was determined by measuring their minimum inhibitory concentrations (MIC90's) using the broth microdilution method according to the Clinical and Laboratory Standards Institute (CLSI, formerly the NCCLS) guidelines (CLSI document M07-A9, 2012). Each well of a 96-well microtiter plate was filled with 75 μL of sterile Mueller Hinton II (MHII) media broth (Sigma). Each antibiotic was dissolved in water making a 20 mM solution, then diluted with sterile MHII media broth to […] (BP) or 288 μM (CFX). Exactly 75 μL of the compound solution was added to the first well of the microtiter plate and 2-fold serial dilutions were made down each row of the plate. Exactly 75 μL of bacterial inoculum (5×10^5 CFU/mL) was then added to each well giving a total volume of 150 μL/well and compound concentration gradients of […] (BP) and 72 μM-0.04 μM (CXF). The plate was incubated at 37° C. for 17 h, and then each well was examined for bacterial growth. The MIC90 was recorded as the lowest compound concentration required to inhibit 90% of bacterial growth as judged by turbidity of the culture media relative to a row of wells filled with a water standard. Gentamicin was included in a control row at a concentration gradient of 174 μM-0.09 μM.
In general terms: Broth dilution looks for growth in wells or tubes with falling amounts of substance.

A further experiment has as its system E. coli K-12 strain. Nature of the experiment: MIC (MIC90) by broth microdilution, E. coli K-12 strain expressing TEM β-lactamase variants. The experiment is classed as cell-based. To be noted: for MIC: E. coli K-12 strain, no plasmid (no TEM β-lactamase), MIC90. On the procedure:
as §1, §2

≈ marks a conversion by molar mass, not a printed value.

Take `CC1(C)S[C@@H]2[C@H](NC(=O)Cc3ccccc3)C(=O)N2[C@H]1C(=O)O` [BP, benzylpenicillin]: the MIC against E. coli B strain (Escherichia coli) was below 23 µM; against E. coli K-12 strain (Escherichia coli, K12STRAIN), 50 µM (≈ 16.7 µg/mL).
Regarding `CO/N=C(\C(=O)N[C@@H]1C(=O)N2C(C(=O)O)=C(COC(C)=O)CS[C@H]12)c1csc(N)n1` [CFX, cefotaxime], the MIC in the experiment with E. coli B strain and against E. coli K-12 strain was below 0.035 µM each time.
As to Gentamicin, the figures for the MIC against E. coli B strain and in the experiment with E. coli K-12 strain were 0.68 µM and 0.34 µM, respectively.

B1: TEM-1: wild-type TEM β-lactamase reference (protein, UniProt P62593 24-286, looked up)
Beta-lactamase TEM: HPETLVKVKDAEDQLGARVGYIELDLNSGKILESFRPEERFPMMSTFKVLLCGAVLSRVDAGQEQLGRRIHYSQNDLVEYSPVTEKHLTDGMTVRELCSAAITMSDNTAANLLLTTIGGPKELTAFLHNMGDHVTRLDRWEPELNEAIPNDERDTTMPAAMATTLRKLLTGELLTLASRQQLIDWMEADKVAGPLLRSALPAGWFIADKSGAGERGSRGIIAALGPDGKPSRIVVIYTTGSQATMDERNRQIAEIGASLIKHW
For the molecule B1, the “BP MIC” value in the experiment on E. coli B strain (benzylpenicillin (BP), E. coli B strain expressing the TEM variant, MIC90, 37° C., 17 h, most commonly observed value, error +/− one well) is listed as 24.00 mM; in the experiment on E. coli K-12 strain (benzylpenicillin (BP), E. coli K-12 strain expressing the TEM variant, MIC90, 37° C., 17 h), 24.00 mM. In addition, the “CFX MIC” value in the experiment with E. coli B strain (cefotaxime (CFX), E. coli B strain expressing the TEM variant, MIC90, 37° C., 17 h) was below 0.035 µM; with E. coli K-12 strain (cefotaxime (CFX), E. coli K-12 strain expressing the TEM variant, MIC90, 37° C., 17 h) it was below 0.035 µM. For the same molecule, the “Gentamicin MIC” value came to 0.68 µM in the experiment on E. coli B strain (gentamicin (control antibiotic), E. coli B strain expressing the TEM variant, MIC90, 37° C., 17 h) and 0.17 µM in the experiment with E. coli K-12 strain (gentamicin (control antibiotic), E. coli K-12 strain expressing the TEM variant, MIC90, 37° C., 17 h).

The MIC is the lowest concentration found to suppress growth.
